This experiment addresses T1, PLK4 (Homo sapiens, UniProt O00444).
T1 construct: expressed in transfected cells; host or cells: HEK293 T cells (ATCC CRL-3216)
T1 sequence (O00444 1-970): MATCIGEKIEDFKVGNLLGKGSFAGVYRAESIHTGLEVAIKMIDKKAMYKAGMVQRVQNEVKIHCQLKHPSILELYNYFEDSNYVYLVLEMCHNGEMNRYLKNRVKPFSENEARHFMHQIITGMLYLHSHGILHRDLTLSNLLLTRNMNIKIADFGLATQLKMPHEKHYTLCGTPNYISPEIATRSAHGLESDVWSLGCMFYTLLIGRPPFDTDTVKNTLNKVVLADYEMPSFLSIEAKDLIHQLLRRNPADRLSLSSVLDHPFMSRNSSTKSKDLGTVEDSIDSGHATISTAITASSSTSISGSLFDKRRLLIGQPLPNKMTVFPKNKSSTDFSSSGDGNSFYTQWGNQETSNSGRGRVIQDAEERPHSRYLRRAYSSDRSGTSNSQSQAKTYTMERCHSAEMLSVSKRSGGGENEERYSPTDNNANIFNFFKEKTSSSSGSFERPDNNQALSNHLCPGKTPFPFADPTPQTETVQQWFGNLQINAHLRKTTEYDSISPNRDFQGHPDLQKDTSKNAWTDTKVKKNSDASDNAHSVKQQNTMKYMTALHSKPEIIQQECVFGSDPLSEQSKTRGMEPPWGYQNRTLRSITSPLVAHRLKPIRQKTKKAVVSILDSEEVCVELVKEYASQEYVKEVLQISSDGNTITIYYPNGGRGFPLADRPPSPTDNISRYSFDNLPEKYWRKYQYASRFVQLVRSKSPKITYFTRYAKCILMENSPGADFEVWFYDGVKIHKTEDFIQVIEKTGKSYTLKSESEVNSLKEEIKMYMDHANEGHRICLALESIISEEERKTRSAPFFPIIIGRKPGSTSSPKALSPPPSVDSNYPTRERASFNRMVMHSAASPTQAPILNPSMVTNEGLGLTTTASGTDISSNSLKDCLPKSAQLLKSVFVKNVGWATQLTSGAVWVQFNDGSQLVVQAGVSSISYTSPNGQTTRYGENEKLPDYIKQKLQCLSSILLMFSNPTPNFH
As to the kind of experiment: PLK4 NanoBRET target engagement assay. It is filed as binding. The following applies: HEK293 T cells transfected with PLK4 NanoLuc fusion vector; K-5 tracer; 2 hrs incubation. The essentials: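 HEK293T cells transiently expressing PLK4-NanoLuc, plated at 17000 cells/well with K-5 tracer and compound, incubated 2 h at 37 °C/5% CO2. After substrate/inhibitor mix, 610/450 nm emission ratio ×1000 gave mBRET; IC50 from 4-parameter fit.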
For orientation: In BRET a luciferase serves as donor, and the signal depends on an acceptor being close.
As to `COc1c(Nc2cc(C)[nH]n2)nc(N(C)c2ccc(-c3ccnn3C)cc2)nc1-c1cnn(C)c1` [Compound 59], 0.28 µM corresponded to half-maximal inhibition (IC50).
`Cc1cc(Nc2nc(N(C)c3c(F)cc(C4(C(N)=O)CC4)cc3F)nc(-c3cn(C)cn3)c2C2CC2)n[nH]1` [Compound 358]: the IC50 (commonly the concentration needed to halve the response being measured) was determined as 0.027 µM.
With `Cc1cc(Nc2nc(N(C)c3c(F)cc(S(C)(=O)=O)cc3F)nc(N3CCC[C@@H]3C#N)c2C2CC2)n[nH]1` [Compound 332], the IC50 came to 0.033 µM.
With `CN(c1nc(Nc2cc(C3CC3)[nH]n2)c(C2CC2)c(-c2cn3c(n2)COCC3)n1)c1c(F)cc(S(C)(=O)=O)cc1F` [Compound 273] the figure was 0.002 µM; with `Cc1cc(Nc2nc(N(C)c3c(F)cc(S(C)(=O)=O)cc3F)nc(N3CC(n4cccn4)C3)c2C2CC2)n[nH]1` [Compound 233], 0.045 µM.
As for `Cc1cc(Nc2nc(N(C)c3c(F)cc(S(C)(=O)=O)cc3F)nc(-c3cn(C4CCOCC4)nc3C)c2C2CC2)n[nH]1` [Compound 185], the figure is 0.021 µM; as for `Cc1ccn(-c2nc(N(C)c3ccc(S(C)(=O)=O)cc3F)nc(Nc3cc(C)[nH]n3)c2C2CC2)n1` [Compound 113], 0.15 µM.
As for `Cc1cc(Nc2nc(N(C)c3c(F)cc(S(C)(=O)=O)cc3F)nc(-c3cc(CO)n(C)n3)c2C2CC2)n[nH]1` [Compound 178], the figure is 0.011 µM; as for `COc1c(Nc2cc(C)[nH]n2)nc(N(C)c2cc(Cl)c(S(C)(=O)=O)cc2F)nc1-c1cnn(C)c1` [Compound 116], 0.068 µM.
As for `COCCn1cnc(-c2nc(N(C)c3c(F)cc(S(C)(=O)=O)cc3F)nc(Nc3cc(C)[nH]n3)c2C2CC2)c1` [Compound 139], the IC50 turned out to be 0.004 µM.
With `COCCn1cc(-c2nc(N(C)c3cc(F)c(S(C)(=O)=O)cc3F)nc(Nc3cc(C)[nH]n3)c2C2CC2)nc1C` [Compound 224] the figure was 0.013 µM; with `COc1c(Nc2cc(C)[nH]n2)nc(Nc2ccc(S(C)(=O)=O)cc2C)c(C)c1-c1cnn(C)c1` [Compound 96], 0.67 µM; with `Cc1cc(Nc2nc(N(C)c3c(F)cc(S(C)(=O)=O)cc3F)nc(Nc3cnn(C)c3)c2C2CC2)n[nH]1` [Compound 334], 0.037 µM.
With `Cc1cc(Nc2nc(N(C)c3cc(F)c(S(C)(=O)=O)cc3F)nc(-c3ccn(C(F)F)n3)c2C2CC2)n[nH]1` [Compound 194] the figure was 0.063 µM; with `Cc1cc(Nc2nc(N(C)c3c(F)cc(S(C)(=O)=O)cc3F)nc(N3CC4(C3)CC(C)(O)C4)c2C2CC2)n[nH]1` [Compound 268], 0.048 µM.
In the case of `COc1c(Nc2cc(C)[nH]n2)nc(Sc2ccc(S(C)(=O)=O)cc2F)c(N(C)C)c1-c1cnn(C)c1` [Compound 97], half-maximal inhibition (IC50) was put at 1.2 µM.
`COc1c(Nc2cc(C)[nH]n2)nc(N(C)c2ccc(S(=O)(=O)C(C)(C)C)cc2)nc1-c1cnn(C)c1` [Compound 86]: the IC50 is 0.12 µM.
With `Cc1cc(Nc2nc(N(C)c3c(F)cc(S(C)(=O)=O)cc3F)nc(-c3cnn([C@H]4CC[C@H](O)CC4)c3)c2C2CC2)n[nH]1` [Compound 193] the figure was 0.003 µM; with `COc1c(Nc2cc(C)[nH]n2)nc(Oc2ccc(S(C)(=O)=O)cc2F)nc1-c1cnn(C)c1` [Compound 9, 2-(2-fluoro-4-(methylsulfonyl)phenoxy)-5-methoxy-N-(5-methyl-1H-pyrazol-3-yl)-6-(1-methyl-1H-pyrazol-4-yl)pyrimidin-4-amine], 0.4 µM; with `COc1c(Nc2cc(C)[nH]n2)nc(N(C)c2ccc(S(C)(=O)=O)c(F)c2F)nc1-c1cnn(C)c1` [Compound 49], 0.054 µM.
With `Cc1cc(Nc2nc(N(C)c3c(F)cc(S(C)(=O)=O)cc3F)nc(-c3cnn(C)c3C(=O)N(C)C3CC3)c2C2CC2)n[nH]1` [Compound 333] the figure was 0.011 µM; with `COCCN(c1nc(Nc2cc(C)[nH]n2)c(OC)c(-c2cnn(C)c2)n1)c1ccc(S(C)(=O)=O)cc1F` [Compound 88], 0.29 µM; with `Cc1cc(Nc2nc(N(C)c3c(F)cc(Cl)cc3F)nc(-c3cn(C)cn3)c2C2CC2)n[nH]1` [Compound 337], 0.062 µM.
With `Cc1cc(Nc2nc(N(C)c3c(F)cc(C4CC4)cc3F)nc(-c3cn(C)cn3)c2C2CC2)n[nH]1` [Compound 343] the figure was 0.026 µM; with `Cc1cc(Nc2nc(N(C)c3c(F)cc(S(C)(=O)=O)cc3F)nc(-c3cnn4c3CCC4)c2C2CC2)n[nH]1` [Compound 175], 0.004 µM; with `Cc1cc(Nc2nc(N(C)c3c(F)cc(S(C)(=O)=O)cc3F)nc(-c3cc(C#N)n(C)n3)c2C2CC2)n[nH]1` [Compound 145], 0.018 µM.
The molecule `COCCn1cc(-c2nc(N(C)c3c(F)cc(S(C)(=O)=O)cc3F)nc(Nc3cc(C)[nH]n3)c2C2CC2)c(C)n1` [Compound 160] gave an IC50 of 0.002 µM.
As for `CC(=O)N1CCn2cc(-c3nc(N(C)c4c(F)cc(S(C)(=O)=O)cc4F)nc(Nc4cc(C)[nH]n4)c3C3CC3)nc2C1` [Compound 212], the figure is 0.053 µM; as for `Cc1cc(Nc2nc(N(C)c3cc(F)c(S(C)(=O)=O)cc3F)nc(-c3ccn(CCO)n3)c2C2CC2)n[nH]1` [Compound 230], 0.026 µM.
The molecule `Cc1cc(Nc2nc(N(C)c3c(F)cc(C(=O)N(C)C)cc3F)nc(-c3cn(C)cn3)c2C2CC2)n[nH]1` [Compound 355] gave an IC50 of 0.19 µM.
As for `Cc1cc(Nc2nc(N(C)c3c(F)cc(S(C)(=O)=O)cc3F)nc(-c3ncn(C)c3C(=O)N(C)C)c2C2CC2)n[nH]1` [Compound 274], the figure is 3.1 µM; as for `Cc1cc(Nc2nc(N(C)c3c(F)cc(S(C)(=O)=O)c(C)c3F)nc(-c3cnn(C)c3)c2C2CC2)n[nH]1` [Compound 114], 0.01 µM; as for `Cc1cc(Nc2nc(N(C)c3c(F)cc(C(C)(C)O)cc3F)nc(-c3cn(C)cn3)c2C2CC2)n[nH]1` [Compound 262], 0.018 µM.
As for `Cc1cc(Nc2nc(N(C)c3c(F)cc(S(C)(=O)=O)cc3F)nc(-c3c(C)ncn3C)c2C2CC2)n[nH]1` [Compound 129], the figure is 0.057 µM; as for `Cc1cc(Nc2nc(N(C)c3c(F)cc(S(C)(=O)=O)cc3F)nc(N3CCn4nccc4C3)c2C2CC2)n[nH]1` [Compound 250], 0.021 µM.
As for `Cc1cc(Nc2nc(Nc3ccc(S(C)(=O)=O)cc3F)nc(-c3cn(C)cn3)c2C2CC2)n[nH]1` [Compound 16, 5-cyclopropyl-N^2-(2-fluoro-4-(methylsulfonyl)phenyl)-6-(1-methyl-1H-imidazol-4-yl)-N^4-(5-methyl-1H-pyrazol-3-yl)pyrimidine-2,4-diamine], the figure is 0.2 µM; as for `Cc1cc(Nc2nc(N(C)c3c(F)cc(S(C)(=O)=O)cc3F)nc(-c3cn[nH]c3C3CC3)c2C2CC2)n[nH]1` [Compound 316], 0.005 µM; as for `COCCn1ncc(-c2nc(N(C)c3c(F)cc(S(C)(=O)=O)cc3F)nc(Nc3cc(C4CC4)[nH]n3)c2C2CC2)c1C` [Compound 277], 0.003 µM.
In the case of `Cc1cc(Nc2nc(N(C)c3c(F)cc(S(C)(=O)=O)cc3F)nc(-c3cnn(C)c3C(C)(C)O)c2C2CC2)n[nH]1` [Compound 294], 0.009 µM corresponded to half-maximal inhibition (IC50).
As for `Cc1cc(Nc2nc(N(C)c3c(F)cc(Br)cc3F)nc(-c3cn(C)cn3)c2C2CC2)n[nH]1` [Compound 335], the figure is 0.043 µM.
For `Cc1cc(Nc2nc(N(C)c3c(F)cc(S(C)(=O)=O)cc3F)nc(-c3cnn(C)n3)c2C2CC2)n[nH]1` [Compound 104], half-maximal inhibition (IC50) was put at 0.015 µM.
With `COc1c(Nc2cc(C)[nH]n2)nc(Sc2ccc(S(C)(=O)=O)cc2F)c(F)c1-c1cnn(C)c1` [Compound 95] the figure was 0.17 µM; with `COCCn1ncc(-c2nc(N(C)c3ccc(S(C)(=O)=O)cc3F)nc(Nc3cc(C)[nH]n3)c2C2CC2)c1C` [Compound 220], 0.038 µM.
As for `COc1nn(C)cc1-c1nc(N(C)c2c(F)cc(S(C)(=O)=O)cc2F)nc(Nc2cc(C)[nH]n2)c1C1CC1` [Compound 147], the figure is 0.005 µM; as for `Cc1cc(Nc2nc(N(C)c3c(F)cc(S(C)(=O)=O)cc3F)nc(-c3cnn(CCO)c3)c2C2CC2)n[nH]1` [Compound 141], 0.009 µM; as for `COc1c(Nc2cc(C)[nH]n2)nc(Sc2ccc(S(C)(=O)=O)cc2F)c(C#N)c1-c1cnn(C)c1` [Compound 101], 0.12 µM.
With `COc1c(Nc2cc(C)[nH]n2)nc(N(C)c2ccc(S(C)(=O)=O)cc2F)c(C#N)c1-c1cnn(C)c1` [Compound 98] the figure was 2 µM; with `COCCn1ccc(-c2nc(N(C)c3c(F)cc(S(C)(=O)=O)cc3F)nc(Nc3cc(C)[nH]n3)c2C2CC2)n1` [Compound 150], 0.015 µM.

(Values after patent US20250177396A1, “POLO-LIKE KINASE 4 (PLK4) INHIBITORS, PHARMACEUTICAL COMPOSITIONS, METHODS OF PREPARATION AND USES THEREOF” (Repare Therapeutics Inc., priority 2022, published 2025).)
